{
  "source": "paper PMC12984539",
  "about": "(European journal of pharmacology, 2024)",
  "test_system": "μ receptor",
  "assay": "Hemi-equilibrium simulation of buprenorphine antagonism of DAMGO",
  "conditions": "chosen to match the experimental DAMGO concentration-response curve",
  "data": [
    {"compound": "C[C@@H](NC(=O)[C@@H](N)Cc1ccc(O)cc1)C(=O)NCC(=O)N(C)[C@@H](Cc1ccccc1)C(=O)NCCO", "note": "[DAMGO, [D-Ala^2, N-MePhe^4, Gly-ol]-enkephalin]", "values": [
      {"measurement": "τ (efficacy of the agonist in the system)", "result": 2.3}
    ]}
  ]
}
